Measurements: paper PMC7447621, “Chemoenzymatic synthesis of daptomycin analogs active against daptomycin-resistant strains” (Applied Microbiology and Biotechnology, 2020)
Numbered stars: 1 amine (or outer) side, 2 acyl side, 3 side chain; on linkers, the order of the positions; unused ones are H or OH. Bridge positions count the residues as written; N and C are the ends. Square brackets hold non-standard residues; d marks the D form. Peptide text beside a SMILES is read from it. * marks the point of attachment. X5 = C=C(C)/C=C/C(C)c1[nH]c2ccccc2c1C[C@H](N[*:1])C(=O)[*:2]; X3 = C=C/C=C/Cc1[nH]c2ccccc2c1C[C@H](N[*:1])C(=O)[*:2]; Glu(3R-Me) = C[C@H](CC(=O)O)[C@H](N)C(=O)O; Kyn = Nc1ccccc1C(=O)C[C@H](N)C(=O)O; Decanoyl = CCCCCCCCCC(=O)*; Orn = NCCC[C@H](N)C(=O)O

Assays:
S. aureus (hVISA, SR220) = conditions: DapS, VISA, BEI NR-50512; MIC90, broth microdilution, MHB + 50 mg L^−1 calcium, 35 °C, 22 h, A600, triplicate
[1] = test system: S. aureus (hVISA, SR3777); conditions: DapS, BEI NR-50509; MIC90, broth microdilution, MHB + 50 mg L^−1 calcium, 35 °C, 22 h, A600, triplicate
[2] = test system: S. aureus (hVISA, SR4035); conditions: DapS, BEI NR-50510; MIC90, broth microdilution, MHB + 50 mg L^−1 calcium, 35 °C, 22 h, A600, triplicate
[3] = test system: E. faecalis (hVRE, ATCC 700802); conditions: DapS, VRE; MIC90, broth microdilution, MHB + 50 mg L^−1 calcium, 35 °C, 22 h, A600, triplicate
[4] = test system: S. aureus (SAUSA300_1715 NE1656); conditions: DapR, strain JE2 transposon mutant NE1656, BEI NR-48198; MIC90, broth microdilution, MHB + 50 mg L^−1 calcium, 35 °C, 22 h, A600, triplicate
[5] = test system: S. epidermidis (ATCC 12228); conditions: DapS; MIC90, broth microdilution, MHB + 50 mg L^−1 calcium, 35 °C, 22 h, A600, triplicate
E. faecalis (S613) = conditions: DapS, BEI HM-334; MIC90, broth microdilution, MHB + 50 mg L^−1 calcium, 35 °C, 22 h, A600, triplicate
[6] = test system: S. aureus (MRSA, ATCC 700787); conditions: DapS, MIC90, broth microdilution, MHB + 50 mg L^−1 calcium, 35 °C, 22 h, A600, triplicate
[7] = test system: S. aureus (SAUSA300_1713 NE573); conditions: DapR, strain JE2 transposon mutant NE573, BEI NR-47116; MIC90, broth microdilution, MHB + 50 mg L^−1 calcium, 35 °C, 22 h, A600, triplicate
S. aureus (ATCC 25923) = conditions: DapS strain; MIC90, broth microdilution, MHB + 50 mg L^−1 calcium, inoculum 1×10^5–5×10^5 CFU/mL, 35 °C, 22 h, A600, triplicate; converted from μM
E. faecalis (R712) = conditions: DapR, BEI HM-335; MIC90, broth microdilution, MHB + 50 mg L^−1 calcium, 35 °C, 22 h, A600, triplicate
[8] = assay type: physicochemical
Description: These differences in activity could be due to differences between the structures of Dap and its analogs either in complex with Gram-positive membranes or in their unbound form. However, with no three-dimensional structure data for the analogs, only conjecture can be offered as to the cause. […] [2004]; Jung et al. [2004]), the benzene ring of Trp is thought to stick out away from the peptide core and lie roughly parallel to the main axis of the acyl tail. […] [2017]), which also suffered from a decrease in activity compared with its N1-normal-prenylated regioisomer. Conversely, the diene moieties attached at the C2 position are prone to conjugate addition reactions which would prevent the proper binding conformation or even enable degradation pathways. Therefore, to check their stability, all purified Dap analogs were reinjected on RP-HPLC after their structural and activity characterization (see Supporting Information Fig. S3). […] While future kinetic and engineering studies will likely answer these questions, the SAR identified in this study will inform future Dap development efforts using the […]-based diversification scheme.

SMILES | MIC (S. aureus (hVISA, SR220)) [µg/mL] | MIC [1] [µg/mL] | MIC [2] [µg/mL] | MIC [3] [µg/mL] | MIC [4] [µg/mL] | MIC [5] [µg/mL] | MIC (E. faecalis (S613)) [µg/mL] | MIC [6] [µg/mL] | MIC [7] [µg/mL] | MIC (S. aureus (ATCC 25923)) [µg/mL] | MIC (E. faecalis (R712)) [µg/mL] | stability of the purified product (RP-HPLC chromatogram) [8]
C=C/C=C/Cc1[nH]c2ccccc2c1C[C@H](NC(=O)CCCCCCCCC)C(=O)N[C@H](CC(N)=O)C(=O)N[C@@H](CC(=O)O)C(=O)N[C@@H]1C(=O)NCC(=O)N[C@@H](CCCN)C(=O)N[C@@H](CC(=O)O)C(=O)N[C@H](C)C(=O)N[C@@H](CC(=O)O)C(=O)NCC(=O)N[C@H](CO)C(=O)N[C@@H]([C@H](C)CC(=O)O)C(=O)N[C@@H](CC(=O)c2ccccc2N)C(=O)O[C@@H]1C [compound 45, C2-15-Dap] (Decanoyl-[X3][dN]DTG[Orn]D[dA]DG[dS][Glu(3R-Me)][Kyn]; ester 4-C) | 33.7 | 16.9 | >33.7 | 33.7 | >8.4 | 16.9 | >8.4 | >33.7 | >8.4 | 16.9 | >8.4 | significant degradation
C=C(C)/C=C/C(C)c1[nH]c2ccccc2c1C[C@H](NC(=O)CCCCCCCCC)C(=O)N[C@H](CC(N)=O)C(=O)N[C@@H](CC(=O)O)C(=O)N[C@@H]1C(=O)NCC(=O)N[C@@H](CCCN)C(=O)N[C@@H](CC(=O)O)C(=O)N[C@H](C)C(=O)N[C@@H](CC(=O)O)C(=O)NCC(=O)N[C@H](CO)C(=O)N[C@@H]([C@H](C)CC(=O)O)C(=O)N[C@@H](CC(=O)c2ccccc2N)C(=O)O[C@@H]1C (stereo partly drawn) [compound 47, C2R-18-Dap] (Decanoyl-[X5][dN]DTG[Orn]D[dA]DG[dS][Glu(3R-Me)][Kyn]; ester 4-C) | >34.3 | 34.3 |  | 34.3 | >34.3 | 34.3 | >34.3 | >34.3 | >34.3 | >34.3 | >34.3 | 
